Results taken from US9138424B2, “Methods and compositions for treating cornelia de lange syndrome” (Saint Louis University, priority 2012, dated 2015).

Experiments:
[1] = system: yeast scc2 and mis4 mutants; assay: Growth of temperature-sensitive cohesin/NIPBL-ortholog mutant yeast strains at semipermissive temperature (optical density); format: cell-based, Saccharomyces cerevisiae; Schizosaccharomyces pombe; conditions: relative to vehicle control and parental strains, data not shown
Description: (§1) PLoS One; 4(7):e6202, herein incorporated by reference.
The Inventors began their screening with a library of FDA-approved drugs for their ability to improve the growth of yeast strains with temperature-sensitive mutations in the NIPBL homologs or orthologs. These included the scc2-4 (Nipped-B) mutation, the smc3-42 (cohesin) mutation, mcd1-1 (cohesin) and pds5-1 (Pds5 cohesion maintenance factor) mutation in Saccharomyces cerevisiae, and the mis4-242 (Nipped-B) mutation, and rad21-K1 (cohesin) mutation in Schizosaccharomyces pombe. […] Compounds that improved the growth rate and/or growth maxima of one or more of the mutant strains relative to the parental strains were retested. An improvement in growth rate was defined as a reproducible increase in either the rate of cell division of a mutant yeast strain during the logarithmic growth or the maximal culture density or both as determined by taking the optical density of the culture every 30 min relative to a vehicle control, and the wild-type yeast controls. […] For this reason, Indomethacin and Acemetacin were chosen for further evaluation.

[2] = system: Drosophila ct^K mutation in the cut gene (Nipped-B dosage sensitive); assay: ct^K wing margin-nicking phenotype after feeding larvae; format: in vivo; conditions: in food from early larval stages (hatching) until pupariation; vs solvent control; FIG. 2
Description: Controls were feed the solvent that was used to dissolve the compounds (DMSO for Indomethacin, PBS for Acemetacin).
as §1

[3] = system: Drosophila N^spl-1 mutation in the Notch receptor gene; assay: N^spl-1 small rough eye phenotype after treatment; format: in vivo; conditions: data not shown
Description: Potential therapeutic compounds may be assayed for their ability to elevate expression of the Nipped-B gene which will enhance the N^spl-1 phenotype, resulting in a decrease in the size of the eye relative to similar untreated subjects.
as §1
The N^spl-1 mutation in the Notch receptor gene causes a small rough eye phenotype. […] (Rollins et a al., (1999) Genetics; 152 (2):577-93).

Nipped-B mRNA = assay: Nipped-B RNA levels in cultured ML-DmBG3 cells by quantitative RT-PCR; format: cell-based, Drosophila; conditions: FIG. 3; for effect on Nipped-B RNA in Nipped-B RNAi cells: ML-DmBG3 cells treated with double-stranded RNA to destabilize Nipped-B RNA; for Nipped-B gene RNA transcripts: ML-DmBG3 cells, treatment for 48 hours, RpL32 as standard
Description: as §1

cohesin-dependent genes = assay: Effect of cohesin depletion on expression of other genes in cultured Drosophila cells; format: cell-based; conditions: not shown
Description: as §1

[4] = system: Drosophila cells (ML-DmBG3)
Nipbl mRNA = Nipbl mRNA in C2C12 myogenic cells by RT-PCR; format: cell-based, mouse; conditions: Gapdh as standard, FIG. 4A
Description: as §1
(§2) Expression of these and other adipogenic genes is reduced in Nipbl +/− mice (Kawauchi et al. (2009) PLoS Genet.; 5(9):e1000650), which may explain their reduced fat levels, and potentially why individuals with CdLS tend to be lean.

Myod1 = Myod1 expression in C2C12 myogenic cells by RT-PCR; format: cell-based, mouse; conditions: treatment for 3 days, FIG. 4B
Description: as §1, §2

Myog = Myog expression in C2C12 myogenic cells by RT-PCR; format: cell-based, mouse; conditions: treatment for 3 days, FIG. 4C
Description: as §1, §2

Cepba = Cepba expression in C2C12 myogenic cells by RT-PCR; format: cell-based, mouse; conditions: treatment for 3 days, FIG. 4D
Description: as §1, §2

Pparg = Pparg expression in C2C12 myogenic cells by RT-PCR; format: cell-based, mouse; conditions: treatment for 3 days, FIG. 4E
Description: as §1, §2

mesenchymal stem cells = conditions: by increasing expression of C/EBPβ and PPARγ2 independently of COX inhibition (Styner et al. 2010); cited from earlier work

| SMILES | growth rate and/or growth maxima of mutant yeast strains [1] | occurrence of wing nicking defect (ct^K) [2] | N^spl-1 eye phenotype (eye size) [3] | effect on Nipped-B RNA in Nipped-B RNAi cells (Nipped-B mRNA) | Nipped-B gene RNA transcripts (Nipped-B mRNA) | effect of cohesin depletion on expression of other genes (cohesin-dependent genes) | toxicity [4] | expression of Nipbl (Nipbl mRNA) | expression of Myod1 myogenic gene (Myod1) | expression of Myog myogenic gene (Myog) | expression of Cepba adipogenic gene (Cepba) | expression of Pparg adipogenic gene (Pparg) | adipogenesis (mesenchymal stem cells) |
| --- | --- | --- | --- | --- | --- | --- | --- | --- | --- | --- | --- | --- | --- |
| COc1ccc2c(c1)c(CC(=O)OCC(=O)O)c(C)n2C(=O)c1ccc(Cl)cc1 [Acemetacin] | improved the growth of the mutant strains | reducing the occurrence of this developmental defect | enhances the N^spl-1 phenotype, decreasing the size of the eye | blocked by Nipped-B RNAi | increase Nipped-B gene RNA transcripts | reduce the effect of cohesin depletion | some toxicity | – | – | – | – | – | – |
| COc1ccc2c(c1)c(CC(=O)O)c(C)n2C(=O)c1ccc(Cl)cc1 [Indomethacin] | improved the growth of the mutant strains | reducing the occurrence of this developmental defect | – | blocked by Nipped-B RNAi | increase Nipped-B gene RNA transcripts | reduce the effect of cohesin depletion | – | increases expression | reduced expression | reduced expression | increased expression | increased expression | promotes adipogenesis |
